Data reported in patent US12102619B2 (Jazz Pharmaceuticals Research UK Limited, priority 2020, dated 2024).
Where two headings read alike, the source gives them in different places.

Assays:
[1] = target: T1, BCRP (Homo sapiens, UniProt Q9UNQ0); assay: Inhibition of BCRP-mediated transport; assay type: in vitro ADME; details: at clinically relevant concentrations
T1 sequence (Q9UNQ0 1-655): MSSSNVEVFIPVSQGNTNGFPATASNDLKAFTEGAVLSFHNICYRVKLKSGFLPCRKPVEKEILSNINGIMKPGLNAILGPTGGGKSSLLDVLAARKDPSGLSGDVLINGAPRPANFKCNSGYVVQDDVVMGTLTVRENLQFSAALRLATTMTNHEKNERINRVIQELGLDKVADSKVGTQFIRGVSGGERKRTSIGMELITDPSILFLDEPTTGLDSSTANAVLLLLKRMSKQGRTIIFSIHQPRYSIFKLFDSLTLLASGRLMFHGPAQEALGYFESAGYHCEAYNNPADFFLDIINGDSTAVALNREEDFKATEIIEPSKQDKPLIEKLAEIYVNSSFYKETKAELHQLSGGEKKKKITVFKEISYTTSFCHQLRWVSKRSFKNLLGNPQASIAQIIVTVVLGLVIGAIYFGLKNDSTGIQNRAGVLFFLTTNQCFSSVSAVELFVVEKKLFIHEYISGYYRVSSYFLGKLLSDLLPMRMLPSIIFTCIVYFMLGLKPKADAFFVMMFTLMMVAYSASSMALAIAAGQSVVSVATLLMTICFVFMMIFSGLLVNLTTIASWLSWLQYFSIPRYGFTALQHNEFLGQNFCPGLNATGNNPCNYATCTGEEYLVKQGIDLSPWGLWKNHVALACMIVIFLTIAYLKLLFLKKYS
Text: (§1) The pharmacological properties of CBD are not fully elucidated. […] 7-COOH-CBD is an inhibitor of transport mediated via BCRP and BSEP at clinically relevant concentrations.

[2] = target: P-gp (Homo sapiens, UniProt P08183); assay: P-gp substrate status of the CBD metabolite; assay type: in vitro ADME
Chain of P-gp (P08183 whole entry): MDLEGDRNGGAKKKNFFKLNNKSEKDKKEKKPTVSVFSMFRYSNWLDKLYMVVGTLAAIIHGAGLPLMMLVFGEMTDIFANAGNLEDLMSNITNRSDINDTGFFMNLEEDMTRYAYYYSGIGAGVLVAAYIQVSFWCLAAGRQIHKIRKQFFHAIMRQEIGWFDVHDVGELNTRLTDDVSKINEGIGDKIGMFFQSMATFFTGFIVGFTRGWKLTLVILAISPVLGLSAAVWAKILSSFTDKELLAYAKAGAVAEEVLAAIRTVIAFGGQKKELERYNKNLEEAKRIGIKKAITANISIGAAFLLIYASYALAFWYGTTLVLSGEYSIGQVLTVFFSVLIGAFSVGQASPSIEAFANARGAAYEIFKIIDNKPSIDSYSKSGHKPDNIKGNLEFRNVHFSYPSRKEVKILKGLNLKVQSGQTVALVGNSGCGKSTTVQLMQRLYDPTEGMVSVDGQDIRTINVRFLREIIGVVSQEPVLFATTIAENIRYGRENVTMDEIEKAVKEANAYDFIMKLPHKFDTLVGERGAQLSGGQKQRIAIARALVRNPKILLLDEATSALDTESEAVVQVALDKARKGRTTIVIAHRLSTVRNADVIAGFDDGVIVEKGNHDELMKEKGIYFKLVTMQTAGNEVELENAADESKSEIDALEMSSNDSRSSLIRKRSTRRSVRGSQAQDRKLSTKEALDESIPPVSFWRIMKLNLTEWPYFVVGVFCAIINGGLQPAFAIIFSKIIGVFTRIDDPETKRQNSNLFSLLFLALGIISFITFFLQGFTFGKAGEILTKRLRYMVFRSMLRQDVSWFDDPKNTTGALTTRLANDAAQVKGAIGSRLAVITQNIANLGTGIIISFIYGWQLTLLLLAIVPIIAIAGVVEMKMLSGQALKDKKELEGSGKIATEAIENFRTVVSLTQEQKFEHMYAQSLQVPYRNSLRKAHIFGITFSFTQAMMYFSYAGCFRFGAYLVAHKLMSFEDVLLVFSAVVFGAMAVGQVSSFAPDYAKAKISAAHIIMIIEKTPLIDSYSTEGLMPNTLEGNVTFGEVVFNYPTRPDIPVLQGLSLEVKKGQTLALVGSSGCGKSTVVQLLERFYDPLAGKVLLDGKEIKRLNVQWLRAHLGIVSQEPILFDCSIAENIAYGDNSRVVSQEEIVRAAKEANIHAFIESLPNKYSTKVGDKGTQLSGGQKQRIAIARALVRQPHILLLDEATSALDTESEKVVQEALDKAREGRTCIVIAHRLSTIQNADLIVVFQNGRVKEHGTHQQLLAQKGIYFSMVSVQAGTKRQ
Text: as §1

[3] = target: BSEP (Homo sapiens, UniProt O95342); assay: Inhibition of BSEP-mediated transport; assay type: in vitro ADME; details: at clinically relevant concentrations
Chain of BSEP (O95342 whole entry): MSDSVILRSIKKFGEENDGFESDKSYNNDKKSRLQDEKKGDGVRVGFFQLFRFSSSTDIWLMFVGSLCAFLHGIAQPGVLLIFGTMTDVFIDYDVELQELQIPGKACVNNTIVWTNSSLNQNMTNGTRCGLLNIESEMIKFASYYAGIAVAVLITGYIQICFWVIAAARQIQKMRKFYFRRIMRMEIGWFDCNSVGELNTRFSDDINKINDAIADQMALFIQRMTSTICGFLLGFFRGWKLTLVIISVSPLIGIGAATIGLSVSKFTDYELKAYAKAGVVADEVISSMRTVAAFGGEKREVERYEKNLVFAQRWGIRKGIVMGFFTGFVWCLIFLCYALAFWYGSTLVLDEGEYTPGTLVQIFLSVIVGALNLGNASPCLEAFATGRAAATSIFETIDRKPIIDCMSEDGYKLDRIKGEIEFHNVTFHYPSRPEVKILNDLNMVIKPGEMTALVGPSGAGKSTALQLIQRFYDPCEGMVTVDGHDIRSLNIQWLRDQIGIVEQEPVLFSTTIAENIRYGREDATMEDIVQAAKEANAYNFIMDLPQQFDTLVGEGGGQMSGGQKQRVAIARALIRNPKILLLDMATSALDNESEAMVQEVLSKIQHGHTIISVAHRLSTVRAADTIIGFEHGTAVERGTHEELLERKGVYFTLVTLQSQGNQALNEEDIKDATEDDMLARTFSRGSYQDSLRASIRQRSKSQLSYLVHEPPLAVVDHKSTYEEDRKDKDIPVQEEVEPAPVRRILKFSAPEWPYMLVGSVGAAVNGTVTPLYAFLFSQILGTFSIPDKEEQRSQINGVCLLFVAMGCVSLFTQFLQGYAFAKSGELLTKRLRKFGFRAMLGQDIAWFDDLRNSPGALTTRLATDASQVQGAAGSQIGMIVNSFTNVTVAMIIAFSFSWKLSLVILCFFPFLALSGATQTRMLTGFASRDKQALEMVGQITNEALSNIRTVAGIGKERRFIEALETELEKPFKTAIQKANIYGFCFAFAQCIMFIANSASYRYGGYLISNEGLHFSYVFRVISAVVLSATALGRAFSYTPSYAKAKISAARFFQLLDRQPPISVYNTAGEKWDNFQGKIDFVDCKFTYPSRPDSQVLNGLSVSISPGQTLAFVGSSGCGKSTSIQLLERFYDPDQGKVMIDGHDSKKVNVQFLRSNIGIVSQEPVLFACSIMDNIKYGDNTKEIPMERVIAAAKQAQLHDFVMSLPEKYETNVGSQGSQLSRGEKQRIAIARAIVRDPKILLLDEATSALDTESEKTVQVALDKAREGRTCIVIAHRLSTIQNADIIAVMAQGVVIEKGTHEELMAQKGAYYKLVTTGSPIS
Text: as §1

[4] = Steady state AUC of CBD by daily dose; details: human, in vivo
Text: In some embodiments, the AUCt1-t2 is reported as a geometric mean (% coefficient of variation).

[5] = Clinical DDI study of steady-state CBD with orally dosed midazolam (GWEP17028); assay type: in vivo; details: CBD at steady-state (750 mg bid, fed state), dosed concomitantly
Text: The everolimus label contains no instructions to adjust the dose when administered with a P-gp inhibitor that is not also a moderate or strong CYP3A4 inhibitor.

[6] = Adverse effects of elevated CBD levels; assay type: in vivo
Text: Transaminase can lead to hepatic dysfunction, including unexplained nausea, vomiting, right upper quadrant abdominal pain, fatigue, anorexia, or jaundice and/or dark urine. Elevated exposure of everolimus exposure is known to cause non-infectious pneumonitis, infections, severe hypersensitivity to reactions, angioedema, stomatitis, renal failure, impaired wound healing, metabolic disorders, myelosuppression, risk of infection or reduced immune response with vaccination, embryo-fetal toxicity, and stomatis, respiratory tract infection. The methods of the disclosure reduce the incidence of one or more of the above side effects.

[7] = coadministered P-gp and CYP3A4 inhibitor; cited from earlier work
[8] = cited from earlier work
[9] = clinical; details: human, in vivo, 5 mg
Text: The duration of the trial was approximately 9 weeks, which includes a screening period (up to 4 weeks), a treatment period (18 days) and a safety follow-up period (2 weeks). After signing the informed consent form (ICF), participants enter the screening period (Day −28 to −1). On Day −1, screened participants who continued to meet eligibility criteria were admitted to the clinical research unit (CRU) at approximately […] and enrolled into the trial. On Day 1, participants received everolimus, 30 minutes after starting a standard meal. […] On Day 18, participants were discharged from the CRU once all assessments were completed.
The time of the meal consumed at the site during days of IMP administration was recorded, as was the dose and dosing time of IMP (as appropriate) relative to sampling times.
Log transformed Cmax, AUC(0-∞), and AUC(0-t) parameters for everolimus were analyzed using a linear mixed-effects model with a fixed effect for treatment and a random effect for participant. The treatment differences are back transformed to present the ratios of geometric means and the corresponding 90% confidence intervals (CIs).

[10] = target: CYP3A4 (Homo sapiens, UniProt P08684); details: oral dose of midazolam coadministered; cited from earlier work
Chain of CYP3A4 (P08684 whole entry): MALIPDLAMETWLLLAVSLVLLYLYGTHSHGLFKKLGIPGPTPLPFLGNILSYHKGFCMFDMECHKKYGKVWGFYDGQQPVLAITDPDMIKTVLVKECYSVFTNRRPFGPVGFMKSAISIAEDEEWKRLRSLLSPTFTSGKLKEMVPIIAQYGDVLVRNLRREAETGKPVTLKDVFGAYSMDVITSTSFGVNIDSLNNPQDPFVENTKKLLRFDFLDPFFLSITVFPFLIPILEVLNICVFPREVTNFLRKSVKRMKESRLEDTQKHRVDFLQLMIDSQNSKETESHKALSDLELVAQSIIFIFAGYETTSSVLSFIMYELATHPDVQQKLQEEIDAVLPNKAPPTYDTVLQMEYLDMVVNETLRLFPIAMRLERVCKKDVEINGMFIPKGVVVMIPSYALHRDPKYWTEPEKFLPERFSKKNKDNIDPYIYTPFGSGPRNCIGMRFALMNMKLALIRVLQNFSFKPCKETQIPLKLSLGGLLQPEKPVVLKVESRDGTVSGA

[11] = once-daily dosing; cited from earlier work

C=C(C)[C@@H]1CCC(C(=O)O)=C[C@H]1c1c(O)cc(CCCCC)cc1O [7-COOH-CBD, 7-carboxy-cannabidiol]
Inhibition of transport mediated via BCRP [1]: inhibitor
P-gp substrate status [2]: substrate for P-gp
Inhibition of transport mediated via BSEP [3]: inhibitor

C=C(C)[C@@H]1CCC(C)=C[C@H]1c1c(O)cc(CCCCC)cc1O [CBD, Cannabidiol]
AUC(0-t) ([4]; 5 mg/kg/day): 241 ng·h/mL
AUC(0-t) ([4]; 10 mg/kg/day): 722 ng·h/mL
AUC(0-t) ([4]; 20 mg/kg/day): 963 ng·h/mL
AUC ([4]; 25 mg/kg/day): 2520 ng·h/mL
AUC ([4]; 50 mg/kg/day): 2730 ng·h/mL
Effect on orally dosed midazolam PK parameters [5]: no clinically significant effect
Adverse effects caused by elevated levels [6]: transaminase elevation, rash, somnolence, sedation, lethargy, diarrhea, pyrexia, weight decreased, nasopharyngitis, irritability, oropharyngeal pain, and decreased appetite

CC[C@H]1OC(=O)[C@H](C)[C@@H](O[C@H]2C[C@@](C)(OC)[C@@H](O)[C@H](C)O2)[C@H](C)[C@@H](O[C@@H]2O[C@H](C)C[C@H](N(C)C)[C@H]2O)[C@](C)(O)C[C@@H](C)C(=O)[C@H](C)[C@@H](O)[C@]1(C)O [Erythromycin]
Increase of the AUC of everolimus [7]: 4.4 fold
Increase of the Cmax of everolimus [7]: 2.0 fold

CO[C@H]1C[C@@H]2CC[C@@H](C)[C@@](O)(O2)C(=O)C(=O)N2CCCC[C@H]2C(=O)O[C@H]([C@H](C)C[C@@H]2CC[C@@H](OCCO)[C@H](OC)C2)CC(=O)[C@H](C)/C=C(\C)[C@@H](O)[C@@H](OC)C(=O)[C@H](C)C[C@H](C)/C=C/C=C/C=C/1C [Everolimus]
Everolimus AUC24, geometric mean±SD ([8]; 2.5 mg of everolimus): 570 ± 195 ng·h/mL
Everolimus Cmaxss, geometric mean±SD ([8]; 2.5 mg of everolimus): 62.1 ± 13.1 ng/mL
Everolimus Cminss, geometric mean±SD ([8]; 2.5 mg of everolimus): 13.6 ± 9.0 ng/mL
Everolimus AUC24, geometric mean±SD ([8]; 5 mg of everolimus): 716 ± 123 ng·h/mL
Everolimus Cmaxss, geometric mean±SD ([8]; 5 mg of everolimus): 114 ± 36 ng/mL
Everolimus Cminss, geometric mean±SD ([8]; 5 mg of everolimus): 17.4 ± 4.5 ng/mL
Everolimus tmax, median (range) ([8]; 5 mg of everolimus): 48 min
Everolimus AUC24 ([8]; 10 mg of everolimus): 1470 ng·h/mL
Everolimus Cmaxss ([8]; 10 mg of everolimus): 139 ng/mL
Everolimus Cminss ([8]; 10 mg of everolimus): 16.5 ng/mL
AUC(0-inf) [9]: 216 ng·h/mL
AUC(0-t) [9]: 95 ng·h/mL
Cmax [9]: 18 ng/mL
Increase in midazolam AUC0-inf [10]: 30%
Increase in midazolam Cmax [10]: 25%
Time to steady-state [11]: ≤ 2 weeks

CC(=O)N1CCN(c2ccc(OCC3COC(Cn4ccnc4)(c4ccc(Cl)cc4Cl)O3)cc2)CC1 (stereo not drawn) [ketoconazole]
Increase of the AUC of everolimus [7]: 15 fold
Increase of the Cmax of everolimus [7]: 3.9 fold
